Laboratory results taken from patent publication US10413583B2, “Synthetic substrates for enzymes that catalyze reactions of modified cysteines and related methods” (The University of Chicago, priority 2016, dated 2019).

What was measured:
[1] = Stability of RDP-1 and RDP-2 with biological reductant (GSH); format: physicochemical; conditions: 1 μM probe, 20 mM GSH, pH 7.4 buffer
Method: RDP-1 or RDP-2 were added to buffer (20 mM HEPES, 150 mM NaCl, 0.1% Triton X-100, pH 7.4, degassed by bubbling N2 through the solution for 1 h) prewarmed to 37° C. in a heating block for 5 min containing no reducing agent or GSH using a multichannel pipet to at least three wells of a black-walled clear-bottom 96-well plate (Nunc, Roskilde, Denmark; Final concentration: 1 μM RDP-1/RDP-2, 20 mM GSH, 20 mM HEPES, 150 mM NaCl, 0.1% Triton X-100, pH 7.4, 4.1% DMSO). Fluorescent intensities (λex1=430/25 nm, λeml=470/24 nm; λex2=480/20, λem2=575/40; gain=75; No. of flashes=10) were obtained as a ratio of em1/em2 in kinetic mode in 30 s intervals for 30 min.

[2] = molecular target: T1, APT1 (Homo sapiens, UniProt O75608); assay: In vitro kinetic assays of RDP-1 and RDP-2 with APT1; format: biochemical; conditions: 1 μM probe, 200 nM enzyme, 20 min
T1 construct: His-tag; made in house; host or cells: E. coli ROSETTA DE3
Method: (§1) 100 μL of 400 nM of APT1 or APT2, or buffer without added enzymes, were added to buffer (20 mM HEPES, 150 mM NaCl, 0.1% Triton X-100, pH 7.4, degassed by bubbling N2 through the solution for 1 h) and prewarmed to 37° C. in a heating block for 5 min. The buffer solutions were then added using a multichannel pipet to a black-walled clear-bottom 96-well plate (Nunc, Roskilde, Denmark) containing 100 μL of 2 μM RDP-1 or RDP-2 in buffer (20 mM HEPES, 150 mM NaCl, 0.1% Triton X-100, pH 7.4, 0.15% DMSO) that had been pre-warmed in the plate reader at 37° C. for 5 min, resulting in a final concentration of 200 nM APT1 or APT2, 1 μM RDP-1 or RDP-2, and 0.1% DMSO. Fluorescent intensities λex1=430/24 nm, λem1=470/24 nm; λex2=480/20, λem2=575/40; gain=75; No. of flashes=8) were obtained as a ratio of em1/em2 in kinetic mode in 30 s intervals for 30 min.

[3] = molecular target: T2, APT2 (Homo sapiens, UniProt O95372); assay: In vitro kinetic assays of RDP-1 and RDP-2 with APT2; format: biochemical; conditions: 1 μM probe, 200 nM enzyme, 20 min
T2 construct: His-tag; made in house; host or cells: E. coli ROSETTA DE3
Method: as §1

[4] = tested on: catalytically inactive APTs (APT1(S119A), APT2(S122A)); assay: In vitro kinetic assays of RDP-1 and RDP-2 with catalytically inactive enzymes; format: biochemical, human; conditions: 10 times more APT1(S119A) and APT2(S122A) enzyme
[5] = tested on: HEK293T cells; assay: Fluorescence imaging of RDP-1 and RDP-2 with HEK293T cells; format: cell-based, human; conditions: 1 μM probe for 10 min
Method: HEK293T were plated with […] of DMEM (Gibco, Gaithersburg, Md., United States of America; High Glucose, Glutamax, 10% FBS) a four well chambered imaging dish (D35C4-20-1.5-N, Cellvis, Mountain View, Calif., United States of America) which were precoated with 4 μg Poly-D-lysine (30-70 kilodalton (KDa), Alfa Aesar, Haverhill, Mass., United States of America) for 2 h at room temperature or overnight at 4° C. and grown to ca. 80% confluence prior to imaging. 30 min before the addition of the RDP, the cell culture media was removed and cells were washed with 500 μL of serum-free DMEM (Gibco, Gaithersburg, Md., United States of America, High Glucose, Glutamax, no FBS). The media was then replaced with 500 μL of serum-free DMEM containing 100 nM Mitotracker Deep Red (Thermo Fisher Scientific, Waltham, Mass., United States of America; to assist in focusing and processing) and either 0.1% DMSO carrier as a control or Palm B, ML348, or ML349 in DMSO and incubated for 30 min at 37° C. and 5% CO2. The media was removed, the cells were washed with 500 μL of Live Cell Imaging Solution (Thermo Fisher Scientific, Waltham, Mass., United States of America), and 500 μL of 1 μM RDP-1 or RDP-2 along with the appropriate inhibitor or DMSO as control in Live Cell Imaging Solution was added to each well. After incubation for 10 min at 37° C. and 5% CO2, the cells were washed with 500 μL Live Cell Imaging Solution and 500 μL of Live Cell Imaging Solution containing DMSO or the appropriate inhibitor was added to the cells immediately before images were obtained on an inverted epi-fluorescence microscope (Olympus IX83; Olympus Corporation, Tokyo, Japan) attached with EMCCD camera (Photometrics EVOLVE™ Delta; Photometrics, Tucson, Ariz., United States of America) with 40× oil objective (N/A 1.3) for RDP-1 (excitation filter 1 430/24 nm, dichroic chroma 89007, emission filter 1 470/24 nm, exposure time 100 ms, EM gain 80, excitation filter 2 480/20 nm, dichroic chroma 49014, emission filter 2 575/40 nm, exposure time 70 ms, EM gain 50) or for RDP-2 (excitation filter 1 430/24 nm, dichroic chroma 89007, emission filter 1 470/24 nm, exposure time 70 ms, EM gain 50, excitation filter 2 480/20, dichroic chroma 49014, emission filter 2 575/40 nm, exposure time 50 ms, EM gain 30), brightfield (exposure time 50 ms, EM gain 30), and MitoTracker Deep Red: (excitation filter 640/30 nm, emission filter 705/72 nm, dichroic chroma 89016, exposure time 15 ms, EM gain 15). Analyses were performed in ImageJ as described below. Each experiment was repeated at least three separate times with identical results.
The probe channel data were expressed as a ratio of the blue channel divided by the green channel and normalized to the average fluorescence intensity of the control conditions. To eliminate errors from autofluorescence, the images were thresholded using the bluer channel images at the same minimum level that included the maximum number of cells in focus (as determined visually by the mitocondrial dye) while limiting the signal from areas where cells are not present. The average value of all nonzero pixels from the blue channel:green channel ratio image were calculated in ImageJ for three different measurements from each experiment. The percent deprotected was estimated by imaging RDP-1/2 in buffer (20 mM HEPES, 150 mM NaCl, 0.1% Triton X-100, pH 7.4, 0.1% DMSO) and for dye deprotected with 20 mM DTT in buffer (20 mM HEPES, 150 mM NaCl, 0.1% Triton X-100, pH 7.4, 0.1% DMSO) for 1 h at room temperature before aliquoted into individual tubes and stored at −80° C. A fresh aliquot of the solution was thawed for each experiment and diluted to 250 nM (RDP-1) or 500 nM (RDP-2) in buffer (20 mM HEPES, 150 mM NaCl, 0.1% Triton X-100, pH 7.4, 10 mM DTT) and allowed to equilibrate for 30 m before being imaged. […]

T2 sequence (O95372 whole entry): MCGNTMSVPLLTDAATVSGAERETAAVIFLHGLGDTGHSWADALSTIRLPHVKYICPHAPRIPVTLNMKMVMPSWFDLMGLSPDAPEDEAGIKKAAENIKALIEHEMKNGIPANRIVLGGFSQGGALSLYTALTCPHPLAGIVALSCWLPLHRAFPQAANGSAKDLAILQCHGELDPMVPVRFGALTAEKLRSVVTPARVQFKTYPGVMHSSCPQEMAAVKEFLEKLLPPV
T1 sequence (O75608 whole entry): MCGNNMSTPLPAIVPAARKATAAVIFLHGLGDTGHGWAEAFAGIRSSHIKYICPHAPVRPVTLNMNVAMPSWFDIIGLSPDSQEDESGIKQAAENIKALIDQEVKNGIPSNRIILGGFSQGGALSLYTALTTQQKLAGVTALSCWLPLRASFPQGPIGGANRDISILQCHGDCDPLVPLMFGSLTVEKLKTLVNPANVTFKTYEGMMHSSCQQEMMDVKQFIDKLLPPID

| Compound | response to 20 mM glutathione [1] | ratio change of ratiometric response [2] | ratio change of ratiometric response [3] | response to catalytically inactive APTs [4] | depalmitoylation of probe (percent deprotected dye) [5] |
| --- | --- | --- | --- | --- | --- |
| CCCCCCCC(=O)SC[C@@H](C(=O)NC)N(C)C(=O)/C(C#N)=C/c1c(C)c2cc3c4c(c2oc1=O)CCCN4CCC3 [RDP-1, (2E)-2-cyano-N-methyl-3-{6-methyl-4-oxo-3-oxa-13-azatetracyclo[7.7.1.0^2,7.0^13,17]heptadeca-1,5,7,9(17)-tetraen-5-yl}-N-[(1R)-1-(methylcarbamoyl)-2-(octanoylsulfanyl)ethyl]prop-2-enamide] | Neither RDP-1 nor RDP-2 responds | 0.7 to 34 | 0.7 to 34 | Neither RDP-1 nor RDP-2 responds | about 28% |
| CCCCCCCC(=O)SC[C@@H](C(=O)N[C@@H](CCCCN)C(=O)OC)N(C)C(=O)/C(C#N)=C/c1c(C)c2cc3c4c(c2oc1=O)CCCN4CCC3 [RDP-2, (5S)-5-[(2R)-2-[(2E)-2-cyano-N-methyl-3-{6-methyl-4-oxo-3-oxa-13-azatetracyclo[7.7.1.0^2,7.0^13,17]heptadeca-1,5,7,9(17)-tetraen-5-yl}prop-2-enamido]-3-(octanoylsulfanyl)propanamido]-6-methoxy-6-oxohexan-1-aminium] | Neither RDP-1 nor RDP-2 responds | 1.9 to 16 | 1.9 to 16 | Neither RDP-1 nor RDP-2 responds | ~18% |
